Measurements from patent US20240165097A1, “PHARMACEUTICAL COMPOSITION FOR THE TREATMENT OF ALZHEIMER'S DISEASE OR DEMENTIA” (Heptares Therapeutics Limited, priority 2021, published 2024).

Test system: patients with mild-to-moderate AD
Experiment: Example D: Cogstate neuropsychological test battery
Type: in vivo, human
Source text: Exploratory PD effects of HTL0018318 were examined via both behavioural (Cogstate neuropsychological test battery [NTB]) tests of cognitive function and electrophysiological (electroencephalogram [EEG] and evoked response potentials [ERPs]) biomarkers. Further details of each biomarker/test and outcome variables are provided below. Twelve-item neuropsychiatric inventory (NPI-12) scores were used to evaluate neuropsychiatric symptoms.
Exploratory pharmacodynamic endpoints (Cogstate tests and EEG/evoked response potential [ERP] biomarkers) were evaluated at screening (practice sessions) and baseline visits, and on Day 28±1. While this study was not powered to detect PD effects of small to moderate ESs, the study sample size provided approximately 80% power to detect a large ES of 0.97 for these endpoints using a significance level of 0.10.
A Cogstate neuropsychological test battery (NTB; http://www.Cogstate.com/) was administered as a computerised test, with the following cognitive tasks included in the battery. The total duration of the battery was approximately 30-40 minutes: • Identification (IDN)—reaction time (attention) • International shopping list immediate recall (ISL) and international shopping list-delayed recall (ISRL)—number of words recalled (episodic memory/verbal learning) • One back test (ONB)—accuracy and reaction time (working memory/executive function) • Groton maze learning (GML; forward and reverse maze learning)—accuracy (executive function)
The IDN is a measure of choice reaction time. In this task, an event (ie, a card turning face-up) occurs in the centre of the computer screen, and the patient must decide “YES” or “NO” as to whether or not this event meets a predefined and unchanging criterion (is the colour of the card red?). For this test, the primary dependent measure of the study was mean of the log10 transformed reaction times for correct responses.
The ISL and ISRL are a computer controlled verbal learning/episodic memory test. In this test, patients are read a list of 12 words. Each word is a concrete noun and describes an item of food that is found commonly in the culture/society in which testing is occurring. The examiner tells the patients “I am going to read to you a list of items I want you to get from the supermarket/store/market/shop”. After the 12 words have been read, the patient tries to recall as many of the words as they can immediately (ie, ISL immediate recall). Once they can recall no more words, the same list is read a second time with the words in the same order, after the same instruction. The process of reading the list and waiting for responses occurs 3 times. At the completion of the computerised battery (and with a minimum 20-minute delay) the patient is asked to recall as many of the items as they can from the shopping list (ISL delayed recall; ie, ISRL). For both ISL and ISRL tests, the primary dependent measure was number of words recalled.
The ONB memory task is a valid measure of working memory. In this task, the patient is shown a single stimulus in the centre of the computer screen (ie, a card turns face-up). He or she must decide “YES” or “NO” as to whether or not the current card matches the card that was seen on the immediately previous trial. The software measures the speed and accuracy of each response. For this test, the primary dependent measure of the study was arcsine transformation of the proportion of correct responses (i.e. accuracy).
The modified GML evaluates short-term memory. The test begins with a chase task to allow the patient to become familiar with the task context. The patient is shown a 10×10 grid of tiles on a computer touch screen. The patient is instructed to chase a moving tile around the grid. Once the patient understands the rules, he or she can proceed onto the timed chase test, where the patient must chase the target for 30 seconds. For the GML, the patient is shown the same 10×10 grid of tiles on a computer touch screen. […]

Structure (SMILES): CCOC(=O)N1C2CCC1CC(N1CCC3(CC1)CNC(=O)C3)C2 (stereo not shown) [HTL0018318, ethyl 3-(3-oxo-2,8-diazaspiro[4.5]dec-8-yl)-8-azabicyclo[3.2.1]octane-8-carboxylate]
- IDN attention (reaction time), ES (15 mg, Day 28): 0.62
- IDN attention (reaction time), LSM difference from placebo (15 mg, Day 28): 0.11
- ISL composite (immediate and delayed recall), LSM difference from placebo (25 mg, Day 28): 0.21
- ISL composite, ES (25 mg, Day 28): 0.48
- ISL-delayed recall, ES (25 mg, Day 28): 0.49
- ISL-delayed recall, LSM difference from placebo (25 mg, Day 28): 0.65
- ISL-immediate recall, ES (25 mg, Day 28): 0.34
- ISL-immediate recall, LSM difference from placebo (25 mg, Day 28): 1.11 words
- IDN attention (reaction time) (5 and 25 mg, Day 28): Non-significant, improvements
- ONB reaction time or accuracy, GML task (forward or reverse) performance (any HTL0018318 dose): no statistically significant differences
